In the supplement of paper PMC10307832:

Experiments:
Test in all cases: relative viability (nuclei count vs DMSO), 5 days (fraction); higher = more cells survive
[1] = compound: CC1=CC(=CC=C1)NC2=NC(=CS2)C3=CC=NC=C3 + CC(=O)c1c(C)c2cnc(Nc3ccc(N4CCNCC4)cn3)nc2n(C2CCCC2)c1=O [Palbociclib] (partner 0.5 µM)
How it was run: (§1)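 Relative viability is defined as nuclei in treated wells over nuclei in vehicle wells. Duplicate plates were run and medians reported. Lung cancer cell lines in 1536-well plates were dosed by pin tool one day after seeding, with one drug or with a fixed anchor-drug dose plus five library-drug doses (not always all listed) in √10 steps, and nuclei were counted after 5 days.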

Masitinib + Palbociclib = compound: Cc1ccc(NC(=O)c2ccc(CN3CCN(C)CC3)cc2)cc1Nc1nc(-c2cccnc2)cs1 [Masitinib] + CC(=O)c1c(C)c2cnc(Nc3ccc(N4CCNCC4)cn3)nc2n(C2CCCC2)c1=O [Palbociclib] (partner 0.5 µM)
How it was run: as §1

Masitinib + Pictilisib = compound: Cc1ccc(NC(=O)c2ccc(CN3CCN(C)CC3)cc2)cc1Nc1nc(-c2cccnc2)cs1 [Masitinib] + CS(=O)(=O)N1CCN(Cc2cc3nc(-c4cccc5[nH]ncc45)nc(N4CCOCC4)c3s2)CC1 [Pictilisib] (partner 1 µM)
How it was run: as §1

Masitinib + Olaparib = compound: Cc1ccc(NC(=O)c2ccc(CN3CCN(C)CC3)cc2)cc1Nc1nc(-c2cccnc2)cs1 [Masitinib] + O=C(c1cc(Cc2n[nH]c(=O)c3ccccc23)ccc1F)N1CCN(C(=O)C2CC2)CC1 [Olaparib] (partner 8 µM)
How it was run: as §1

| Cell Line | relative viability ([1]; first compound 0.08 µM) | relative viability ([1]; first compound 0.253 µM) | relative viability ([1]; first compound 0.8 µM) | relative viability ([1]; first compound 2.53 µM) | relative viability ([1]; first compound 8 µM) | relative viability (Masitinib + Palbociclib; first compound 0.01 µM) | relative viability (Masitinib + Palbociclib; first compound 0.03162 µM) | relative viability (Masitinib + Palbociclib; first compound 0.1 µM) | relative viability (Masitinib + Palbociclib; first compound 0.3162 µM) | relative viability (Masitinib + Palbociclib; first compound 1 µM) | relative viability (Masitinib + Pictilisib; first compound 0.01 µM) | relative viability (Masitinib + Pictilisib; first compound 0.03162 µM) | relative viability (Masitinib + Pictilisib; first compound 0.1 µM) | relative viability (Masitinib + Pictilisib; first compound 0.3162 µM) | relative viability (Masitinib + Pictilisib; first compound 1 µM) | relative viability (Masitinib + Olaparib; first compound 0.01 µM) | relative viability (Masitinib + Olaparib; first compound 0.03162 µM) | relative viability (Masitinib + Olaparib; first compound 0.1 µM) | relative viability (Masitinib + Olaparib; first compound 0.3162 µM) | relative viability (Masitinib + Olaparib; first compound 1 µM) |
| --- | --- | --- | --- | --- | --- | --- | --- | --- | --- | --- | --- | --- | --- | --- | --- | --- | --- | --- | --- | --- |
| HCC-78 | 0.367 | 0.438 | 0.4 | 0.447 | 0.511 | 0.436 | 0.451 | 0.497 | 0.488 | 0.534 | 0.206 | 0.19 | 0.23 | 0.19 | 0.223 | 0.798 | 0.855 | 0.871 | 0.712 | 0.824 |
| HCC-366 | 0.372 | 0.343 | 0.274 | 0.275 | 0.257 | – | 0.39 | 0.388 | 0.407 | 0.375 | 0.119 | 0.0994 | 0.131 | 0.115 | 0.138 | – | 0.384 | 0.357 | 0.343 | 0.396 |
| HCC-827 | 0.495 | 0.435 | 0.431 | 0.518 | 0.37 | 0.395 | 0.466 | 0.389 | 0.613 | 0.441 | 0.998 | 0.918 | 0.977 | 0.921 | 0.942 | 0.564 | 0.642 | 0.655 | 0.624 | 0.695 |
| HOP-62 | 0.454 | 0.446 | 0.497 | 0.447 | 0.571 | 0.455 | 0.447 | 0.59 | 0.438 | 0.506 | 0.652 | 0.676 | 0.842 | 0.71 | 0.557 | 0.312 | 0.819 | 0.451 | 0.289 | 0.418 |
| IA-LM | – | – | – | – | – | – | – | – | – | – | 0.291 | 0.415 | 0.353 | 0.455 | 0.418 | 0.896 | 0.875 | 0.929 | 0.796 | 0.836 |
| LC-2-ad | 0.469 | 0.532 | 0.466 | 0.542 | 0.436 | 0.494 | 0.474 | 0.544 | 0.47 | 0.503 | 0.435 | 0.46 | 0.467 | 0.409 | 0.412 | 0.708 | 0.715 | 0.719 | 0.702 | 0.73 |
| LCLC-97TM1 | 0.172 | 0.216 | 0.206 | 0.217 | 0.276 | 0.192 | 0.15 | 0.25 | 0.285 | 0.208 | 0.156 | 0.172 | 0.287 | 0.218 | 0.2 | 0.402 | 0.396 | 0.406 | 0.473 | 0.427 |
| LCLC-103H | 0.402 | 0.445 | 0.477 | 0.406 | 0.507 | – | 0.471 | 0.458 | 0.511 | 0.475 | 0.557 | 0.621 | 0.596 | 0.583 | 0.543 | – | 0.747 | 0.75 | 0.758 | 0.781 |
| LK-2 | – | 0.764 | 0.675 | 0.699 | 1.06 | 0.691 | 0.697 | 0.666 | 0.76 | 0.762 | 0.595 | 0.656 | 0.671 | 0.569 | 0.641 | 0.8 | 0.679 | 1.01 | 0.615 | 0.7 |
| LOU-NH91 | 0.571 | 0.572 | 0.547 | 0.54 | 0.545 | 0.564 | 0.47 | 0.57 | 0.562 | 0.527 | 0.497 | 0.499 | 0.492 | 0.432 | 0.501 | 0.883 | 0.917 | 0.902 | 0.869 | 0.908 |
| LU99A | 0.387 | 0.384 | 0.42 | 0.39 | 0.468 | 0.431 | 0.417 | 0.419 | 0.428 | 0.418 | 0.324 | 0.332 | 0.346 | 0.349 | 0.279 | 0.27 | 0.276 | 0.246 | 0.255 | 0.269 |
| LXF-289 | 0.57 | 0.642 | 0.57 | 0.645 | 0.553 | 0.553 | 0.6 | 0.655 | 0.627 | 0.595 | 0.729 | 0.836 | 0.792 | 0.846 | 0.761 | 0.948 | 0.99 | 1.06 | 1.04 | 1.02 |
| NCI-H522 | 1.19 | 0.797 | 0.92 | 0.954 | 0.947 | 1.03 | 1.07 | 1.31 | 0.849 | 1.13 | – | – | – | – | – | 0.609 | 0.766 | 0.66 | 0.534 | 0.619 |
| NCI-H596 | – | – | – | – | – | – | – | – | – | – | 0.214 | 0.345 | 0.438 | 0.385 | 0.35 | 0.593 | 0.657 | 0.634 | 0.581 | 0.633 |
| NCI-H1299 | – | – | – | – | – | – | – | – | – | – | 0.8 | 0.785 | 0.81 | 0.947 | 0.736 | 0.936 | 0.988 | 0.993 | 1.06 | 0.846 |
| NCI-H1563 | – | – | – | – | – | – | – | – | – | – | 0.656 | 0.641 | 0.647 | 0.665 | 0.676 | – | – | – | – | – |
| NCI-H1648 | 0.242 | 0.263 | 0.281 | 0.295 | 0.302 | 0.297 | 0.313 | 0.289 | – | 0.228 | – | – | – | – | – | 1.04 | 0.78 | 1.08 | – | 0.96 |
| NCI-H1703 | – | – | – | – | – | – | – | – | – | – | 0.226 | 0.255 | 0.217 | 0.203 | 0.201 | 0.308 | 0.267 | 0.231 | 0.174 | 0.277 |
| NCI-H2342 | 0.455 | 0.491 | 0.557 | 0.503 | 0.497 | 0.532 | 0.524 | 0.566 | 0.507 | 0.529 | – | – | – | – | – | 0.447 | 0.485 | 0.425 | 0.44 | 0.36 |
| SW 900 | 0.508 | 0.464 | 0.49 | 0.477 | 0.46 | 0.462 | 0.458 | 0.575 | 0.502 | 0.513 | – | – | – | – | – | 0.809 | 0.878 | 0.918 | 0.684 | 0.966 |
